Entries after “also recorded” stand apart in the source; their conditions may differ. Where two headings read alike, the source gives them in different places.
How the values were obtained:
[1] = system: soil urease; test: Urea hydrolysis in bands of urea plus inhibitor in Hastings silt loam soil (banded system); assay type: biochemical; conditions: for Unhydrolyzed Urea, % Banded 3-Day / Unhydrolyzed Urea, % Banded 6-Day: Table VI, 41 mg inhibitor/band; for Unhydrolyzed Urea, % 3 Days / Unhydrolyzed Urea, % Banded 3-Day: 3 days; for Unhydrolyzed Urea, % 6 Days / Unhydrolyzed Urea, % Banded 6-Day: 6 days
[2] = system: soil urease; test: Soil urease inhibition in Crowley silt loam soil, extended time evaluation system (urea added at selected intervals); assay type: biochemical; conditions: for Soil Urease Inhibition, 0 Days / Soil Urease Inhibition, 3 Days / Soil Urease Inhibition, 7 Days / Soil Urease Inhibition, 14 Days / Soil Urease Inhibition, 21 Days: 7 micromoles compound per 120 g Crowley silt loam, reincubated 16 hours; for Soil Urease Inhibition, 0 Days: urea added after 0 days; for Soil Urease Inhibition, 3 Days: urea added after 3 days; for Soil Urease Inhibition, 7 Days: urea added after 7 days; for Soil Urease Inhibition, 14 Days: urea added after 14 days; for Soil Urease Inhibition, 21 Days: urea added after 21 days
[3] = system: soil urease; test: Urea remaining unhydrolyzed in Hastings silt loam soil, well-mixed system; assay type: biochemical; conditions: for Soil urease inhibitory properties in words, well-mixed system: 1-, 3- and 6-day tests, compared with phenyl phosphorodiamidate; for Unhydrolyzed Urea, % Well-Mixed 1-Day / Unhydrolyzed Urea, % Well-Mixed 3-Day / Unhydrolyzed Urea, % Well-Mixed 6-Day: Table V, 41 mg inhibitor, 410 mg urea, 100 g soil, three replications, 25° C.; for Unhydrolyzed Urea, % Well-Mixed 3-Day: 3 days; for Unhydrolyzed Urea, % Well-Mixed 6-Day: 6 days; for Time until percentage urease inhibition reaches 0% (FIG. 1): FIG. 1, plotted and extrapolated from data of Table V, conventional test
[4] = cited from earlier work
[5] = soil, 168 h; cited from earlier work
[6] = Hastings silt loam, banded system, 3-day and 6-day tests
[7] = Table IV, inhibitor 10 percent of urea (wt/wt), 41 mg/band, two replications, Hastings silt loam
[8] = Table II, equimolar basis, 0.25 millimoles inhibitor/band, 410 mg urea/band, three replications, Hastings silt loam, 25° C.
[9] = 410 mg urea/band, three replications, Hastings silt loam, 25° C.
[10] = Table III, inhibitor 10 percent of urea (wt/wt), 41 mg/band, four replications, Hastings silt loam, 25° C.

Row | Compound | Soil urease inhibition in words, banded soil tests [1, 6] | Unhydrolyzed Urea, % 3 Days [1, 7] [%] | Unhydrolyzed Urea, % 6 Days [1, 7] [%] | Unhydrolyzed Urea, % 3 Days [1, 8] [%] | Unhydrolyzed Urea, % 6 Days [1, 8] [%] | Soil Urease Inhibition, 0 Days ([2]; 30° C.) [%] | Soil Urease Inhibition, 3 Days ([2]; 30° C.) [%] | Soil Urease Inhibition, 7 Days ([2]; 30° C.) [%] | Soil Urease Inhibition, 14 Days ([2]; 30° C.) [%] | Soil Urease Inhibition, 21 Days ([2]; 30° C.) [%] | Unhydrolyzed Urea, % Banded 3-Day [1, 9] [%] | Unhydrolyzed Urea, % Banded 6-Day [1, 9] [%] | Soil urease inhibitory properties in words, well-mixed system [3] | Unhydrolyzed Urea, % Well-Mixed 1-Day [3] [%] | Unhydrolyzed Urea, % Well-Mixed 3-Day [3] [%] | Unhydrolyzed Urea, % Well-Mixed 6-Day [3] [%] | also measured
1 | CNP1(NC)=NP(NC)(NC)=NP(NC)(NC)=N1 [P3 N3 (NHCH3)6, 2,2,4,4,6,6-hexa(monomethylamino)cyclotriphosphazatriene] | do not exhibit urease inhibition | 0.0 | 0.0 |  |  |  |  |  |  |  |  |  |  |  |  |  | 
2 | CC(=O)NO [CH3 C(NOH)(OH), Acetohydroxamic acid, reference compound] |  |  |  | 26.2 | 6.7 |  |  |  |  |  |  |  |  |  |  |  | 
3 | CN(C)P1(N(C)C)=NP(N)(N)=NP(N(C)C)(N(C)C)=N1 [P3 N3 (NH2)2 [N(CH3)2]4, 2,2,4,4,-tetra(dimethylamino)-6,6-diaminocyclotriphosphazatriene] | do not exhibit urease inhibition |  |  |  |  |  |  |  |  |  |  |  |  |  |  |  | 
4 | ClP1(Oc2ccccc2)=NP(Cl)(Oc2ccccc2)=NP(Cl)(Oc2ccccc2)=N1 (centres unmarked) [P3 N3 (Cl)3 (OC6 H5)3, 2,4,6-triphenoxy-2,4,6-trichlorocyclotriphosphazatriene] |  |  |  |  |  |  |  |  |  |  |  |  |  |  |  |  | Soil urease inhibition in words, banded soil tests [1]: not effective urease inhibitors
5 | CNP1(NC)=NP(N)(N)=NP(NC)(NC)=N1 [P3 N3 (NH2)2 (NHCH3)4, 2,2,4,4,-tetra(monomethylamino)-6,6-diaminocyclotriphosphazatriene] |  | 0.5 | 0.0 |  |  |  |  |  |  |  |  |  |  |  |  |  | 
6 | NC(=O)NO [CO(NH2)(NHOH), Hydroxyurea, reference compound] |  |  |  | 20.3 | 0.2 |  |  |  |  |  |  |  |  |  |  |  | 
7 | NP1(Oc2ccccc2)=NP(N)(Oc2ccccc2)=NP(N)(Oc2ccccc2)=N1 (centres unmarked) [P3 N3 (NH2)3 (OC6 H5)3, 2,4,6-triphenoxy-2,4,6-triaminocyclotriphosphazatriene] |  |  |  |  |  | 22 | 79 | 74 | 84 | 82 | 21 | 0 | less than that of phenyl phosphorodiamidate | 82 | 37 | 0 | Urease inhibition sustained during the period from 7 to 21 days (FIG. 2) ([2]; Crowley silt loam, 30° C., period from 7 to 21 days): greater than 80%
8 | NP(N)(N)=O [PO(NH2)3, Phosphoryltriamide, reference compound] |  | 54.2 | 2.6 | 43.4 | 1.8 | 29 | 4 | 12 | 0 | 0 |  |  |  |  |  |  | Unhydrolyzed Urea, % 3 Days [1, 10]: 48.1%; Unhydrolyzed Urea, % 6 Days [1, 10]: 1.1%
9 | NP1(N)=NP(N)(N)=NP(N)(Oc2ccccc2)=N1 (centres unmarked) [P3 N3 (NH2)5 (OC6 H5), 2-phenoxy-2,4,4,6,6-pentaaminocyclotriphosphazatriene] | inhibit soil urease during the 3-day and 6-day tests |  |  |  |  | 95 | 75 | 49 | 42 | 44 | 61 | 7 | comparable to phenyl phosphorodiamidate | 96 | 82 | 44 | Time until percentage urease inhibition reaches 0% (FIG. 1) [3]: about 10 days
10 | CN(C)P1(N(C)C)=NP(N(C)C)(N(C)C)=NP(N(C)C)(N(C)C)=N1 [P3 N3 [N(CH3)2]6, 2,2,4,4,6,6-hexa(dimethylamino)cyclotriphosphazatriene] | do not exhibit urease inhibition | 0.0 | 0.0 |  |  |  |  |  |  |  |  |  |  |  |  |  | 
11 | NP1(N)=NP(N)(Oc2ccccc2)=NP(N)(Oc2ccccc2)=N1 (centres unmarked) [P3 N3 (NH2)4 (OC6 H5)2, 2,4-diphenoxy-2,4,6,6-tetraaminocyclotriphosphazatriene] | inhibit soil urease during the 3-day and 6-day tests |  |  |  |  | 75 | 94 | 71 | 69 | 65 | 60 | 4 | comparable to phenyl phosphorodiamidate | 94 | 74 | 36 | Time until percentage urease inhibition reaches 0% (FIG. 1) [3]: about 10 days
12 | NP1(N)=NP(N)(N)=NP(N)(N)=N1 [P3 N3 (NH2)6, 2,2,4,4,6,6-hexaaminocyclotriphosphazatriene] | comparable to PPDA as an inhibitor of soil urease activity; also recorded: inhibit soil urease during the 3-day and 6-day tests | 53.8 | 9.5 | 48.1 | 16.8 | 46 | 23 | 20 | 4 | 4 | 64 | 8 | less than that of phenyl phosphorodiamidate | 86 | 57 | 9 | Time of hydrolysis ([4]; pH 8, 15° C.): about 300 hours; Time of hydrolysis ([4]; pH 8, 30° C.): ~100 h; Soil Urease Inhibition, 21 Days ([2]; 30° C., listed as hexaaminocyclotriphosphazatriene): about 4%; Urease inhibition compared with reference standard PPDA, in words (FIG. 2) ([2]; time independent modified soil evaluation procedure, 21-day test period): as good or better than PPDA for the time period from 14 to 21 days; Unhydrolyzed Urea, % 3 Days [1, 10]: 49.7%; Unhydrolyzed Urea, % 6 Days [1, 10]: 9.5%; Percent hydrolyzed in 7 days [5]: 6-13%

Reference: US4670038A, “Cyclotriphosphazatriene-derivatives as soil urease activity inhibitors” (Tennessee Valley Authority, priority 1986, dated 1987)
